Measured values published in patent publication US12458021B2, “Microbiocidal derivatives” (SYNGENTA CROP PROTECTION AG, priority 2019, dated 2025).

Assays:
Type in all cases: cell-based
[1] = test system: Glomerella lagenarium (Colletotrichum lagenarium); experiment: Glomerella lagenarium (Colletotrichum lagenarium) / liquid culture (anthracnose); conditions: Colletotrichum orbiculare, PDB potato dextrose broth, 24° C., 3-4 days after application, read-out: control of Glomerella lagenarium (inhibition of growth, photometric)
Procedure: (§1) Example B3: Glomerella lagenarium (Colletotrichum lagenarium)/Liquid Culture (Anthracnose) Conidia of the fungus from cryogenic storage are directly mixed into nutrient broth (PDB potato dextrose broth). After placing a (DMSO) solution of test compound into a microtiter plate (96-well format), the nutrient broth containing the fungal spores is added. The test plates are incubated at 24° C. and the inhibition of growth is measured photometrically 3-4 days after application. […] […]-191.

[2] = test system: Mycosphaerella graminicola (Septoria tritici); experiment: Mycosphaerella graminicola (Septoria tritici) / liquid culture (Septoria blotch); conditions: Zymoseptoria tritici, PDB potato dextrose broth, 24° C., 4-5 days after application, read-out: control of Mycosphaerella graminicola (inhibition of growth, photometric)
Procedure: as §1, with “B15: Mycosphaerella graminicola (Septoria tritici)/Liquid” for “B3: Glomerella lagenarium (Colletotrichum lagenarium)/Liquid”, “(Septoria Blotch)” for “(Anthracnose)”, “determined” for “measured”, “4-5” for “3-4”

[3] = test system: Monographella nivalis (Microdochium nivale); experiment: Monographella nivalis (Microdochium nivale) / liquid culture (foot rot cereals); conditions: PDB potato dextrose broth, 24° C., 4-5 days after application, read-out: control of Monographella nivalis (inhibition of growth, photometric)
Procedure: Example B7: Monographella nivalis (Microdochium nivale)/Liquid Culture (Foot Rot Cereals) Conidia of the fungus from cryogenic storage are directly mixed into nutrient broth (PDB potato dextrose broth). After placing a (DMSO) solution of test compound into a microtiter plate (96-well format), the nutrient broth containing the fungal spores is added. The test plates are incubated at 24° C. and the inhibition of growth is determined photometrically 4-5 days after application. […] […]-190.

SMILES	inhibition at 20 ppm [1]	inhibition at 20 ppm [2]	inhibition at 20 ppm [3]
COc1ccc(Nc2cc(F)cc(F)c2)nc1C(=O)NCc1cccc2c1OC(F)(F)O2 [Compound P-58, 6-(3,5-difluoroanilino)-N-[(2,2-difluoro-1,3-benzodioxol-4-yl)methyl]-3-methoxy-pyridine-2-carboxamide]	≥ 80%	≥ 80%	
CC1(C)CCC1NC(=O)c1nc(Nc2ccnc(Cl)c2)ccc1O (stereo not drawn) [Compound P-14, 6-[(2-chloro-4-pyridyl)amino]-N-(2,2-dimethylcyclobutyl)-3-hydroxy-pyridine-2-carboxamide]	≥ 80%		≥ 80%
CC(C)(C)CNC(=O)c1nc(Nc2cc(F)nc(F)c2I)ccc1O [Compound P-106, 6-[(2,6-difluoro-3-iodo-4-pyridyl)amino]-N-(2,2-dimethylpropyl)-3-hydroxy-pyridine-2-carboxamide]			≥ 80%
COc1ccc(Nc2ccc(Cl)c(C)c2)nc1C(=O)NCC(C)(C)C [Compound P-138, 6-(4-chloro-3-methyl-anilino)-N-(2,2-dimethylpropyl)-3-methoxy-pyridine-2-carboxamide]	≥ 80%		≥ 80%
CC1(C)CCC1NC(=O)c1nc(Nc2cncc(F)c2)ccc1O (stereo not drawn) [Compound P-12, N-(2,2-dimethylcyclobutyl)-6-[(5-fluoro-3-pyridyl)amino]-3-hydroxy-pyridine-2-carboxamide]			≥ 80%
COc1ccc(Nc2cnsc2)nc1C(=O)NCc1ccc(Oc2ccccc2)cc1 [Compound P-81, 6-(isothiazol-4-ylamino)-3-methoxy-N-[(4-phenoxyphenyl)methyl]pyridine-2-carboxamide]	≥ 80%		≥ 80%
COc1ccc(Nc2ccc3cnn(Cc4ccccc4)c3c2)nc1C(=O)NC(C)(C)C [Compound P-165, 6-[(1-benzylindazol-6-yl)amino]-N-tert-butyl-3-methoxy-pyridine-2-carboxamide]	≥ 80%		
COc1ccc(Nc2ccc(C)cc2)nc1C(=O)NCC(C)(C)C [Compound P-141, N-(2,2-dimethylpropyl)-3-methoxy-6-(4-methylanilino)pyridine-2-carboxamide]	≥ 80%		
COc1ccc(Nc2cc(F)c(Cl)c(F)c2)nc1C(=O)NCC(C)(C)C [Compound P-135, 6-(4-chloro-3,5-difluoro-anilino)-N-(2,2-dimethylpropyl)-3-methoxy-pyridine-2-carboxamide]		≥ 80%	
CC(C)(C)CNC(=O)c1nc(Nc2cc(F)nc(F)c2)ccc1O [Compound P-100, 6-[(2,6-difluoro-4-pyridyl)amino]-N-(2,2-dimethylpropyl)-3-hydroxy-pyridine-2-carboxamide]	≥ 80%		
COC(=O)N(c1cc(F)cc(F)c1)c1ccc(OC)c(C(=O)NC2CCC2(C)C)n1 (stereo not drawn) [Compound P-191, methyl N-(3,5-difluorophenyl)-N-[6-[(2,2-dimethylcyclobutyl)carbamoyl]-5-methoxy-2-pyridyl]carbamate]	≥ 80%	≥ 80%	
COc1ccc(Nc2cc(F)cc(F)c2)nc1C(=O)NC1CCN(S(=O)(=O)C(C)C)CC1 [Compound P-77, 6-(3,5-difluoroanilino)-N-(1-isopropylsulfonyl-4-piperidyl)-3-methoxy-pyridine-2-carboxamide]	≥ 80%		
COc1ccc(Nc2ccc(Cl)c(Cl)c2)nc1C(=O)NCC(C)(C)C [Compound P-131, 6-(3,4-dichloroanilino)-N-(2,2-dimethylpropyl)-3-methoxy-pyridine-2-carboxamide]	≥ 80%		≥ 80%
COc1ccc(Nc2cnsc2)nc1C(=O)NCc1cccc2c1OC(F)(F)O2 [Compound P-82, N-[(2,2-difluoro-1,3-benzodioxol-4-yl)methyl]-6-(isothiazol-4-ylamino)-3-methoxy-pyridine-2-carboxamide]	≥ 80%		≥ 80%
COc1ccc(Nc2ccc(Cl)c(C)c2)nc1C(=O)NC(C)(C)C [Compound P-158, N-tert-butyl-6-(4-chloro-3-methyl-anilino)-3-methoxy-pyridine-2-carboxamide]	≥ 80%		
COc1ccc(Nc2ccc(C)cc2)nc1C(=O)NC(C)(C)C [Compound P-161, N-tert-butyl-3-methoxy-6-(4-methylanilino)pyridine-2-carboxamide]	≥ 80%		
COc1ccc(Nc2nccs2)nc1C(=O)NC1CCC1(C)C (stereo not drawn) [Compound P-5, N-(2,2-dimethylcyclobutyl)-3-methoxy-6-(thiazol-2-ylamino)pyridine-2-carboxamide]			≥ 80%

SMILES	inhibition at 20 ppm [1]	inhibition at 20 ppm [2]	inhibition at 20 ppm [3]
CC1(C)CCC1NC(=O)c1nc(Nc2ccc3c(c2)OCO3)ccc1O (stereo not drawn) [Compound P-17, 6-(1,3-benzodioxo1-5-ylamino)-N-(2,2-dimethylcyclobutyl)-3-hydroxy-pyridine-2-carboxamide]			≥ 80%
COc1ccc(Nc2ccc(C(F)(F)F)cc2)nc1C(=O)NC(C)(C)C [Compound P-150, N-tert-butyl-3-methoxy-6-[4-(trifluoromethyl)anilino]pyridine-2-carboxamide]	≥ 80%		≥ 80%
COc1cc(Nc2cc(F)cc(F)c2)nc(C(=O)NC2CCC2(C)C)c1 (stereo not drawn) [Compound P-101, 6-(3,5-difluoroanilino)-N-(2,2-dimethylcyclobutyl)-4-methoxy-pyridine-2-carboxamide]	≥ 80%		
CC1(C)CCC1NC(=O)c1nc(Nc2cncnc2)ccc1O (stereo not drawn) [Compound P-15, N-(2,2-dimethylcyclobutyl)-3-hydroxy-6-(pyrimidin-5-ylamino)pyridine-2-carboxamide]			≥ 80%
COc1ccc(Nc2cc(F)cc(F)c2)nc1C(=O)NCC#CC(C)(C)C [Compound P-28, 6-(3,5-difluoroanilino)-N-(4,4-dimethylpent-2-ynyl)-3-methoxy-pyridine-2-carboxamide]		≥ 80%	
COc1ccc(Nc2cc(F)cc(F)c2)nc1C(=O)NCC1(c2ccc(C(F)(F)F)cn2)CC1 [Compound P-72, 6-(3,5-difluoroanilino)-3-methoxy-N-[[1-[5-(trifluoromethyl)-2-pyridyl]cyclopropyl]methyl]pyridine-2-carboxamide]	≥ 80%		
COc1ccc(Nc2cnsc2)nc1C(=O)NCCc1ccc(OC(F)(F)F)cc1 [Compound P-85, 6-(isothiazol-4-ylamino)-3-methoxy-N-[2-[4-(trifluoromethoxy)phenyl]ethyl]pyridine-2-carboxamide]	≥ 80%		
COc1ccc(Nc2cc(F)cc(F)c2)nc1C(=O)NCc1cc(C(F)(F)F)cc(C(F)(F)F)c1 [Compound P-115, N-[[3,5-bis(trifluoromethyl)phenyl]methyl]-6-(3,5-difluoroanilino)-3-methoxy-pyridine-2-carboxamide]		≥ 80%	
COc1ccc(Nc2cncc(C(F)(F)F)c2)nc1C(=O)NC(C)(C)C [Compound P-163, N-tert-butyl-3-methoxy-6-[[5-(trifluoromethyl)-3-pyridyl]amino]pyridine-2-carboxamide]	≥ 80%		
COCC(=O)Oc1ccc(N(C(=O)COC)c2cc(F)cc(F)c2)nc1C(=O)NC1CCC1(C)C (stereo not drawn) [Compound P-24, [6-(3,5-difluoro-N-(2-methoxyacetyl)anilino)-2-[(2,2-dimethylcyclobutyl)carbamoyl]-3-pyridyl] 2-methoxyacetate]	≥ 80%		
COc1ccc(NC2CCC2)nc1C(=O)NCC(C)(C)C [Compound P-41, 6-(cyclobutylamino)-N-(2,2-dimethylpropyl)-3-methoxy-pyridine-2-carboxamide]		≥ 80%	
COc1ccc(Nc2ccc(C(F)(F)F)c(F)c2)nc1C(=O)NC(C)(C)C [Compound P-154, N-tert-butyl-6-[3-fluoro-4-(trifluoromethyl)anilino]-3-methoxy-pyridine-2-carboxamide]	≥ 80%		
COc1ccc(Nc2cc(Cl)cc(Cl)c2)nc1C(=O)NCC(C)(C)C [Compound P-130, 6-(3,5-dichloroanilino)-N-(2,2-dimethylpropyl)-3-methoxy-pyridine-2-carboxamide]	≥ 80%	≥ 80%	
COc1ccc(Nc2cnsc2)nc1C(=O)NCC#CC(C)(C)C [Compound P-34, N-(4,4-dimethylpent-2-ynyl)-6-(isothiazol-4-ylamino)-3-methoxy-pyridine-2-carboxamide]		≥ 80%	
COc1ccc(Nc2cnsc2)nc1C(=O)NCC1(C)CCOC2(CCC2)C1 (stereo not drawn) [Compound P-84, 6-(isothiazol-4-ylamino)-3-methoxy-N-[(8-methyl-5-oxaspiro[3.5]nonan-8-yl)methyl]pyridine-2-carboxamide]	≥ 80%		
COc1ccc(Nc2ccc(Cl)c(Cl)c2)nc1C(=O)NC(C)(C)C [Compound P-149, N-tert-butyl-6-(3,4-dichloroanilino)-3-methoxy-pyridine-2-carboxamide]	≥ 80%		
